Source: article PMC4287973, “Tumor cell-specific inhibition of MYC function using small molecule inhibitors of the HUWE1 ubiquitin ligase” (EMBO Molecular Medicine, 2014)
pIC50: −log10 of the molar value.

How the values were obtained:
Type in all cases: biochemical
HECT-domain of HUWE1 = target: T1, HECT-domain of HUWE1 (Homo sapiens, UniProt Q7Z6Z7); assay: HUWE1 auto-ubiquitination assay (DELFIA format); conditions: UBA1, UbcH5b, read-out: IC50 HUWE1 (in vitro auto-ubiquitination)
T1 construct: 30 ng biotinylated His-HUWE1 (C-terminal ∼350 amino acids = HECT-domain); His; biotin (biotinylated)
T1 sequence (Q7Z6Z7 4038-4374 limits assumed): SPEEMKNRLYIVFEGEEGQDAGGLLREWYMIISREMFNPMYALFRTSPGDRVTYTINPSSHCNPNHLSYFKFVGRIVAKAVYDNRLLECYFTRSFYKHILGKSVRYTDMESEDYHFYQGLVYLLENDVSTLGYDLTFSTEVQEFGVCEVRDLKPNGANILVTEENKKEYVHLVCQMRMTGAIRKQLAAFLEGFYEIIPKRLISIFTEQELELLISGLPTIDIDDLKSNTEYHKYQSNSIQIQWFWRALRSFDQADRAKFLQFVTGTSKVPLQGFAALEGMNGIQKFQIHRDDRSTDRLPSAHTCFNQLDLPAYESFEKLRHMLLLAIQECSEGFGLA
Procedure: To identify potential inhibitors of HUWE1, we configured an in vitro assay of HUWE1 activity for high-throughput screening of small molecules, exploiting the fact that the HECT-domain of HUWE1 auto-ubiquitinates (Pandya et al, [2010]). Briefly, the HECT-domain of HUWE1 was biotin-tagged, attached to streptavidin-coated 96-well plates, and incubated with UBA1, UbcH5b, a ubiquitin-conjugating enzyme that supports HUWE1 activity in vitro (Adhikary et al, [2005]), ATP, and MYC-tagged ubiquitin. Auto-ubiquitination was detected using a europium-labeled MYC antibody and appropriate detection reagents (Fig3A). […] After hit confirmation in repeat experiments, we identified inhibitors of UBA1 or UbcH5b by a thioester assay that measures the covalent binding of UbcH5b to ubiquitin in the presence of UBA1: Compounds active in this assay were eliminated. Furthermore, dose responses were determined in both HUWE1 and NEDD4 auto-ubiquitination assays, and compounds inhibiting NEDD4 auto-ubiquitination were eliminated (Fig3B and unpublished observations). […]
A DELFIA format assay was used to measure the covalent association of ubiquitin with HUWE1 (auto-ubiquitination). […] Europium fluorescence was measured with 50 μl DELFIA enhancement solution (Perkin Elmer) in a Wallac Victor fluorescence plate reader (Perkin Elmer).

UBE3A = target: T2, UBE3A (Homo sapiens, UniProt Q05086); assay: in vitro HECT-domain auto-ubiquitination assay, UBE3A
T2 construct: HECT-domains of multiple ligases auto-ubiquitinate in in vitro assays containing both UBA1 and UbcH5b
T2 sequence (Q05086 518-875 limits assumed): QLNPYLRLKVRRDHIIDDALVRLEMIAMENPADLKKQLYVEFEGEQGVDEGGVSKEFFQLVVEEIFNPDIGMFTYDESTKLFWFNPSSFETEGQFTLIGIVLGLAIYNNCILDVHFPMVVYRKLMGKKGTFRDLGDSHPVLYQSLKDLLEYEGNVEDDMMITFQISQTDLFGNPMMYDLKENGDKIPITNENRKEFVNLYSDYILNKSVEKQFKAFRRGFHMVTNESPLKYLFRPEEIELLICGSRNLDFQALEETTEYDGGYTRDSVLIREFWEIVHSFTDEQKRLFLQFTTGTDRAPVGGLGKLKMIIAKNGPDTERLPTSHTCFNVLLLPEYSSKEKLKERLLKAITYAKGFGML

SMURF1 = target: T3, SMURF1 (Homo sapiens, UniProt Q9HCE7); assay: in vitro HECT-domain auto-ubiquitination assay, SMURF1
T3 construct: HECT-domains of multiple ligases auto-ubiquitinate in in vitro assays containing both UBA1 and UbcH5b

HERC1 = target: T4, HERC1 (Homo sapiens, UniProt Q15751); assay: in vitro HECT-domain auto-ubiquitination assay, HERC1
T4 construct: HECT-domains of multiple ligases auto-ubiquitinate in in vitro assays containing both UBA1 and UbcH5b
T4 sequence (Q15751 4501-4848 limits assumed): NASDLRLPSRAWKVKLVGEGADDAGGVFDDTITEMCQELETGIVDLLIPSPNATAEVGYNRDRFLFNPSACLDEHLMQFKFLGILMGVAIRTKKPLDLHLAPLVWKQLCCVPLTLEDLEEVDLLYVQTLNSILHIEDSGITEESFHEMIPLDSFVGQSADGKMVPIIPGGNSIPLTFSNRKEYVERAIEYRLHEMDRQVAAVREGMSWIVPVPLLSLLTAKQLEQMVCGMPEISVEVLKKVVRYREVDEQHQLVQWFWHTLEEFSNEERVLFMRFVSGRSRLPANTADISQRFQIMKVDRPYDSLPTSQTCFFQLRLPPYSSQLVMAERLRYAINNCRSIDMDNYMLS

WWP1 = target: T5, WWP1 (Homo sapiens, UniProt Q9H0M0); assay: in vitro HECT-domain auto-ubiquitination assay, WWP1
T5 construct: HECT-domains of multiple ligases auto-ubiquitinate in in vitro assays containing both UBA1 and UbcH5b
T5 sequence (Q9H0M0 588-922 limits assumed, species assumed): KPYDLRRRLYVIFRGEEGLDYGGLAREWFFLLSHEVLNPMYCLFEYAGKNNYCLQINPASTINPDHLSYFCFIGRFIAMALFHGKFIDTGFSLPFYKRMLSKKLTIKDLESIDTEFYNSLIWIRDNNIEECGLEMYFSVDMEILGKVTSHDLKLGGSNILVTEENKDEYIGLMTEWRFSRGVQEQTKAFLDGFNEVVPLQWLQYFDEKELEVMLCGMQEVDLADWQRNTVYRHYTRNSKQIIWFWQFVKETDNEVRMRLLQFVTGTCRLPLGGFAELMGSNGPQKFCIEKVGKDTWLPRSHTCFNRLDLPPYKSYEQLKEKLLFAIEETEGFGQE

T3 sequence (Q9HCE7 420-757 limits assumed, species assumed): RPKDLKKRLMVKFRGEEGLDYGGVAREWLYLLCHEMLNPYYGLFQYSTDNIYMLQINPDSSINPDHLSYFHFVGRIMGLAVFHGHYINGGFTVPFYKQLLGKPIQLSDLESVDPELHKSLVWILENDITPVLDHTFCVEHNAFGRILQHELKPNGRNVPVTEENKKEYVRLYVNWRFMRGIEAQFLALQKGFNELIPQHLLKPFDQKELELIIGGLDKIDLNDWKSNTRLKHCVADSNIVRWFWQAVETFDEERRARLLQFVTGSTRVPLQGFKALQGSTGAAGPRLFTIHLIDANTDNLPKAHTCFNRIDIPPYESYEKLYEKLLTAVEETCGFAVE

Cc1c(C(=O)Nc2ccc(CN)cc2)ncnc1N1CCC(C#N)(c2ccccc2)CC1 [BI8622] was tested, and the pIC50 (HECT-domain of HUWE1) was 5.51, the pIC50 (UBE3A) was < 4.30 and the pIC50 (SMURF1) was < 4.30. The pIC50 (HERC1) was < 4.30 and the pIC50 (WWP1) was < 4.30.

For NCc1cccc(CNc2ncnc3c(N4CCN(Cc5ccccc5)CC4)ncnc23)c1 [BI8626], the pIC50 (HECT-domain of HUWE1) was 6.05, the pIC50 (UBE3A) was < 4.30 and the pIC50 (SMURF1) was < 4.30. For the same compound, the pIC50 (HERC1) was < 4.30 and the pIC50 (WWP1) was < 4.30.
